The values below come from US9133140B2, “Cycloalkylamne derivatives” (Daiichi Sankyo Company, Limited, priority 2008, dated 2015).

One assay addresses T1, human CaSR (Homo sapiens, UniProt P41180).
T1 construct: TT cells are cell lines that express human CaSR; endogenous in cells; host or cells: TT cells (human medullary thyroid carcinoma cell line)
T1 sequence (P41180 20-1078): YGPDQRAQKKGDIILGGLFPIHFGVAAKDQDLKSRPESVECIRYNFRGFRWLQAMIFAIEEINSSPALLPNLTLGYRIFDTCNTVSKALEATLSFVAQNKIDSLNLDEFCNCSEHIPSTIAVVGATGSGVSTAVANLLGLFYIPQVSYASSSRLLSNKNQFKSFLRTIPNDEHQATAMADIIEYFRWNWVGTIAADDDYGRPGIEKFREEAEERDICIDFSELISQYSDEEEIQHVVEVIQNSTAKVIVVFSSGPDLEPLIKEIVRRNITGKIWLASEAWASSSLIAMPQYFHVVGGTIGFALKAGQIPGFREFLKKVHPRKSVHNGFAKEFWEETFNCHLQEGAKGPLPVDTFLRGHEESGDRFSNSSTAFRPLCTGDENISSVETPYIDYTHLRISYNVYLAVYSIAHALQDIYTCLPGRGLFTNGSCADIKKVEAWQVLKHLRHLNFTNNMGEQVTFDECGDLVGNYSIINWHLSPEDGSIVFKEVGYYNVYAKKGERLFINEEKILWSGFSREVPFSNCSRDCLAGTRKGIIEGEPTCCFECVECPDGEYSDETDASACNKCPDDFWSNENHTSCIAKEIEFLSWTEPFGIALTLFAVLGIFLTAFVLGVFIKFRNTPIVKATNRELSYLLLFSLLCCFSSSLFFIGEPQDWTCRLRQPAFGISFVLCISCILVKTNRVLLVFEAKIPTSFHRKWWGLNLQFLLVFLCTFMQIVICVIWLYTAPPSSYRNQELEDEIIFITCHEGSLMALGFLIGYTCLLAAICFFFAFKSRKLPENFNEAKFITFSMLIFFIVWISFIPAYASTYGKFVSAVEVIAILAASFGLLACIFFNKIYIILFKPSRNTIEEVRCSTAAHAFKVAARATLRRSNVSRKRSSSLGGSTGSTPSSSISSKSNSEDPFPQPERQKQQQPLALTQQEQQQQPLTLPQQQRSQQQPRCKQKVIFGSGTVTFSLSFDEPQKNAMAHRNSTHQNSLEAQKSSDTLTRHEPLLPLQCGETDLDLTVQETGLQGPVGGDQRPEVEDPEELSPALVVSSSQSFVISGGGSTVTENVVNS
Briefly: Human CaSR activity measurement test (intracellular calcium in TT cells). The class given is cell-based. Conditions: [EC50 of test compound]/[EC50 of Compound A], intracellular calcium fluorescence. The protocol: It is reported that human medullary thyroid carcinoma cell lines TT cells are cell lines that express human CaSR, and when CaSR is activated by extracellular calcium ions or the like, intracellular calcium ion concentration increases (Endocrinology 137: 3842-3848, 1996). Accordingly, an activating action of the test compounds with respect to human CaSR was evaluated by using the change in intracellular calcium concentration of TT cells as an indicator. TT cells were inoculated onto a black well/clear bottom 96 well plate (poly-D-lysine coat: manufactured by BD biosciences), and were cultured for approximately 24 hours in a F-12 Nutrient Mixture (Kaighn's modification) culture media containing 10% calf serum and 0.5% antibiotic antimycotic. […] Then, the plate was allowed to stand for 1 hour at 37° C. Subsequently, the above-mentioned plate was placed onto FlexStation (manufactured by Molecular Device) or FlexStation 3 (manufactured by Molecular Device), and fluorescence intensity before and after treatment with the test compound dissolved in a buffer for measurement (126 mM NaCl, 4 mM KCl, 1 mM MgCl2, 20 mM HEPES (pH 7.4), 5.6 mM glucose, 2 mM CaCl2) was measured. […] Nagano, Pharmacol. […] WO 1996/12697) as a comparative compound, by conducting a similar procedure. From the following equation, the human CaSR activity of each of the test compounds was calculated as the relative activity with respect to Compound A. Relative activity with respect to Compound A=[EC50 of test compound]/[EC50 of Compound A]
A general note: Calcium assays in cells follow changes in intracellular calcium, usually with a dye or a luminescent sensor.

For assay [1], the system named is calcium ion concentration in the blood. Briefly: Measurement test for concentration of parathyroid hormone and calcium ion in rat blood. The class given is in vivo. Conditions: read-out: reduction of calcium concentration in the blood. How it is done: Three male SD rats (manufactured by Japan SLC, Inc.) were orally administered with the test compound, and effects on the concentration of parathyroid hormone (PTH) in the blood and concentration of the calcium ion in the blood were studied.
The test compound was administered by dissolving or suspending it in a 0.5% methyl cellulose 400 (MC) solution or 0.5% MC solution containing 10% of ethanol. (In addition, Compound A used in Test Example 1 was administered as a MC suspension by dosage of 30 mg/kg, and was studied as a comparative example.) Blood was collected from the jugular vein under anesthesia with halothane or isoflurane, before administration of the test compound, and 2, 4, 6 or 8 and 24 hours after administration. Calcium ion concentration in the blood was measured using cartridge EG7+(manufactured by Fuso Chemical Co., Ltd.) and i-STAT 300F (manufactured by Fuso Chemical Co., Ltd.). In addition, plasma intact PTH concentration was measured using Rat intact PTH ELISA kit (manufactured by Immutopics).
The transition of calcium ion concentration in the blood over time from before administration to 24 hours after administration of each of the test compounds was plotted, and the decrease in calcium ion concentration in the blood from the value before administration was calculated as an area value.

The mark [2] stands for this setting: male SD rats, oral, 4 hours after administration.
[3] abbreviates: male SD rats, oral, 10 mg/kg, 4 hours after administration.

Structures can show the parent of a compound that is named as a salt. Where two headings read alike, the source gives them in different places.

In the case of `C[C@@H](N[C@H]1CC[C@@H](c2cccc(OCC(=O)O)c2)C1)c1cccc2ccccc12` [Example 12, {3-[(1R,3S)-3-{[(1R)-1-(Naphthalen-1-yl)ethyl]amino}cyclopentyl]phenoxy}acetic acid hydrochloride], the “Relative activity with respect to Compound A” value (“Relative activity” for short) on human CaSR is on record as 0.36.

`C[C@@H](N[C@H]1CC[C@H](c2ccc(CCC(=O)O)cc2)C1)c1ccc(F)c2ccccc12` [Example 30, 3-{4-[(1S,3S)-3-{[(1R)-1-(4-Fluoronaphthalen-1-yl)ethyl]amino}cyclopentyl]phenyl}propanoic acid hydrochloride]: the inhibition in vivo at 0.3 mg/kg in assay [1] (setting [2]) is at least 20%. Besides, the “Relative activity” value on human CaSR is reported as 0.31.

Regarding `C[C@@H](N[C@H]1CC[C@@H](c2ccc(CCC(=O)O)cc2)C1)c1cccc2ccccc12` [Example 9, 3-{4-(1R,3S)-3-{[(1R)-1-(Naphthalen-1-yl)ethyl]amino}cyclopentyl]phenyl}propanoic acid hydrochloride], the “Relative activity” value at human CaSR amounted to 0.38.

For the molecule `C[C@@H](N[C@H]1CC[C@@H](c2ccc(OCc3nn[nH]n3)cc2)C1)c1cccc2ccccc12` [Example 38, (1S,3R)-N-[(1R)-1-(Naphthalen-1-yl)ethyl]-3-[4-(2H-tetrazol-5-ylmethoxy)phenyl]cyclopentanamine hydrochloride], on human CaSR, the “Relative activity” value was found to be 0.13.

For `C[C@@H](N[C@H]1CC[C@@H](c2ccc(OCC(=O)O)cc2)C1)c1ccc(F)c2ccccc12` [Example 17, {4-[(1R,3S)-3-{[(1R)-1-(4-Fluoronaphthalen-1-yl)ethyl]amino}cyclopentyl]phenoxy}acetic acid], in assay [1] (setting [2]), the inhibition in vivo at 0.3 mg/kg is at least 20%. Besides, in assay [1] (setting [3]), the inhibition in vivo at 10 mg/kg was at least 30%. On human CaSR, the “Relative activity” value was 0.30.

Turning to `C[C@@H](NC1CC[C@@H](c2ccc(OCC(=O)O)cc2)C1)c1ccc(F)c2ccccc12` (mixture of isomers) [Example 16, {4-[(1R)-3-{[(1R)-1-(4-Fluoronaphthalen-1-yl)ethyl]amino}cyclopentyl]phenoxy}acetic acid], the inhibition in vivo at 10 mg/kg in assay [1] (setting [3]) was at least 30%. Also, at human CaSR, the “Relative activity” value is 0.72.

In the case of `C[C@@H](N[C@H]1CC[C@@H](c2ccc(OCC(=O)O)cc2)C1)c1cccc2ccccc12` [Example 10, {4-[(1R,3S)-3-{[(1R)-1-(Naphthalen-1-yl)ethyl]amino}cyclopentyl]phenoxy}acetic acid hydrochloride], in assay [1] (setting [3]), the inhibition in vivo at 10 mg/kg was at least 30%. In addition, on human CaSR, the “Relative activity” value was determined as 0.28.

On to `C[C@@H](N[C@H]1CC[C@@H](c2cccc(-c3nn[nH]n3)c2)C1)c1cccc2ccccc12` [Example 1, (1S,3R)-N-[(1R)-1-(Naphthalen-1-yl)ethyl]-3-[3-(2H-tetrazol-5-yl)phenyl]cyclopentanamine hydrochloride], for which, on human CaSR, the “Relative activity” value came to 0.30.

Take `C[C@@H](N[C@H]1CC[C@@H](c2ccc(SCC(=O)O)cc2)C1)c1ccc(F)c2ccccc12` [Example 37, ({4-[(1R,3S)-3-{[(1R)-1-(4-Fluoronaphthalen-1-yl)ethyl]amino}cyclopentyl]phenyl}thio)acetic acid hydrochloride]: on human CaSR, the “Relative activity” value is listed as 0.10.

Consider `C[C@@H](NCCCc1cccc(C(F)(F)F)c1)c1cccc2ccccc12` [Compound A, ((R)-1-naphthalen-1-yl-ethyl)-[3-(3-trifluoromethyl-phenyl)-propyl]-amine monohydrochloride, reference compound], for which the inhibition in vivo at 30 mg/kg in assay [1] (male SD rats, oral, 30 mg/kg, 4 hours after administration) lay in the range of 15 to 30%.

In the case of `C[C@@H](N[C@H]1CC[C@@H](c2ccc(NCC(=O)O)cc2)C1)c1ccc(F)c2ccccc12` [Example 35, N-{4-[(1R,3S)-3-{[(1R)-1-(4-Fluoronaphthalen-1-yl)ethyl]amino}cyclopentyl]phenyl}glycine 0.3 hydrochloride], the inhibition in vivo at 10 mg/kg in assay [1] (po, 4 h) is at least 30%.

Take `C[C@@H](N[C@H]1CC[C@@H](c2ccc(C(=O)NCC(=O)O)cc2)C1)c1cccc2ccccc12` [Example 5, N-{4-[(1R,3S)-3-{[(1R)-1-(Naphthalen-1-yl)ethyl]amino}cyclopentyl]benzoylglycine hydrochloride]: the “Relative activity” value on human CaSR was 0.52.

On to `Cc1cc([C@@H]2CC[C@H](N[C@H](C)c3cccc4ccccc34)C2)ccc1OCC(=O)O` [Example 32, {2-Methyl-4-[(1R,3S)-3-{[(1R)-1-(naphthalen-1-yl)ethyl]amino}cyclopentyl]phenoxy}acetic acid hydrochloride], for which, at human CaSR, the “Relative activity” value is listed as 0.26.

With `Cc1ccc([C@@H](C)NC2CC[C@@H](c3ccc(OCC(=O)O)cc3)C2)c2ccccc12` (stereo partly drawn) [Example 22, {4-[(1R)-3-{[(1R)-1-(4-Methylnaphthalen-1-yl)ethyl]amino}cyclopentyl]phenoxy}acetic acid], the “Relative activity” value on human CaSR is recorded as 0.42.

For the molecule `C[C@@H](NC1CC[C@H](c2ccc(-c3nn[nH]n3)cc2)C1)c1cccc2ccccc12` (stereo partly drawn) [Example 4, (3S)-N-[(1R)-1-(Naphthalen-1-yl)ethyl]-3-[4-(2H-tetrazol-5-yl)phenyl]cyclopentanamine hydrochloride], the “Relative activity” value on human CaSR came to 0.33.

Consider `C[C@@H](N[C@H]1CC[C@@H](c2ccc(-c3nn[nH]n3)cc2)C1)c1ccc(F)c2ccccc12` [Example 26, (1S,3R)-N-[(1R)-1-(4-Fluoronaphthalen-1-yl)ethyl]-3-[4-(2H-tetrazol-5-yl)phenyl]cyclopentanamine hydrochloride], for which the “Relative activity” value at human CaSR worked out at 0.27.

As to `C[C@@H](N[C@H]1CC[C@H](c2ccc(CCC(=O)O)cc2)C1)c1cccc2ccccc12` [Example 29, 3-{4-[(1S,3S)-3-[(1R)-1-(4-Naphthalen-1-yl)ethyl]amino}cyclopentyl]phenyl}propanoic acid hydrochloride], on human CaSR, the “Relative activity” value was 0.30.

Take `C[C@@H](N[C@H]1CC[C@@H](c2ccc(OCc3nn[nH]n3)cc2)C1)c1ccc(F)c2ccccc12` [Example 39, (1S,3R)-N-[(1R)-1-(4-Fluoronaphthalen-1-yl)ethyl]-3-[4-(2H-tetrazol-5-ylmethoxy)phenyl]cyclopentanamine hydrochloride]: on human CaSR, the “Relative activity” value is listed as 0.07.

Take `C[C@@H](N[C@H]1CC[C@@H](c2ccc(OCC(=O)O)cc2)C1)c1ccc(F)c2cc(F)ccc12` [Example 23, {4-[(1R,3S)-3-{[(1R)-1-(4,6-Difluoronaphthalen-1-yl)ethyl]amino}cyclopentyl]phenoxy}acetic acid]: the inhibition in vivo at 0.3 mg/kg in assay [1] (setting [2]) is at least 20%.
